Assays:
[1] = Energy balance (carcass energy content, energy intake, energy expenditure) of treated male Wistar rats; assay type: in vivo; conditions: 10-day treatment; for changes in energy expenditure versus control group (in words): estimated as energy intake minus accrual; for loss of body energy: oleoyl-estrone 10 micromol/kg daily gavage, CL-316243 1 mg/kg daily s.c. infusion; for decrease in food consumption: versus control group
Description: (§1) Forty-five day-old male Wistar rats were used. The rats were kept in collective cages in a light cycle, temperature, and humidity-controlled environment. They were fed tap water and a self-selected cafeteria diet (containing an excess of tasty, energy-dense foods, as well as standard chow) for 45 additional days. Then they were subjected to a 5-day diet adaptation period, in which they had rat chow as the sole food available. At this point, the rats weighed 350-370 g and had significant amounts of body fat. Maintaining the availability of rat chow (daily consumption by the group was recorded) and tap water, body weight was recorded daily. The animals were given a daily gavage of either 0.2 mL of sunflower oil or the same vehicle containing oleoyl-estrone to a daily dose of 10 micromol/kg of body weight.
(§2) This standard feeding and drug administration schedule was complemented by treating one half of the animals receiving only oil and one half of the animals receiving oil and oleoyl-estrone with a daily dose of 1 mg/kg of CL-316243, a beta-3 adrenergic agonist. This drug was continuously administered by means of subcutaneous infusion using Alzet osmotic minipumps (model 2002; 0.5 microliter/h) loaded with drug dissolved in saline. The minipumps were inserted subcutaneously in the dorsal lumbar area of the experimental animals by means of a short cut in the skin. The pumps were tested before their implantation, and the fluid remaining in the minipumps was later measured in order to check the effectiveness of the infusion.
(§3) The treatment was maintained up to 10 days, when the animals were killed by decapitation, and their blood and carcass were used for analyses.
(§4) Samples of the rat paste were dried and used for the estimation of their caloric content using a bomb calorimeter. The initial values for lipid content were calculated from the corresponding in vivo body weights at the beginning of the experiment and applying to all the animals the mean percentage of lipid content found in the control (vehicle only) group at the end of the experiment. This same procedure was used to determine the overall energy content of the carcasses by using the experimentally found energy content of the rats in the control group. Likewise, the energy content of the pellet diet was also measured and used to estimate the energy intake of the animals.
Energy expenditure (Ee) was estimated as the difference between energy intake (Ei) and accrual (Ea), since: Ei=Ee±Ea.

[2] = Body weight and lipid changes of overweight male Wistar rats in the 10-day period of treatment; assay type: in vivo; conditions: 10-day treatment; oleoyl-estrone 10 micromol/kg daily gavage; CL-316243 1 mg/kg daily s.c. infusion
Description: as §1, §2, §3
The rat corpses, partially exsanguinated were dissected. The stomach and intestines were cleaned of their contents. The remaining carcass was sealed into polyethylene bags, autoclaved and blended to a fine paste. This paste was analyzed for lipid content by extraction using trichloromethane/methanol and corrected by its water content. Lipid content in the paste was referred to whole in vivo body weight for comparison.
as §4

CCCCCCCC/C=C\CCCCCCCC(=O)Oc1ccc2c(c1)CC[C@@H]1[C@@H]2CC[C@]2(C)C(=O)CC[C@@H]12 [oleoyl-estrone, [3(Z)]-3-[(1-oxo-9-octadecenyl)oxy]-estra-1,3,5(10)-trien-17-one]
contribution of internal reserves to fuel the energy expenditure [1]: 19% | changes in energy expenditure versus control group (in words) [1]: slight decrease | loss of body energy [1]: 354 kJ | decrease in food consumption [1]: 32% | loss of body weight [2]: about 8% | loss of lipid (lipid stores) [2]: 13%

C[C@H](Cc1ccc2c(c1)OC(C(=O)[O-])(C(=O)[O-])O2)NC[C@H](O)c1cccc(Cl)c1.[Na+].[Na+] [beta-3 agonist]
contribution of internal reserves to fuel the energy expenditure [1]: 28% | changes in energy expenditure versus control group (in words) [1]: higher than that of the control group by more than one-third | loss of body energy [1]: 821 kJ | increase in energy expenditure ([1]; rats treated with the beta-3 agonist, alone or with oleoyl-estrone): 136% | decrease in food consumption [1]: did not show a significant loss of appetite | loss of body weight [2]: less than 3% | loss of lipid (lipid stores) [2]: 42%
